Experimental findings from patent US20110092600A1, “PHARMACEUTICAL COMPOSITIONS COMPRISING AMINOCYCLOHEXANE DERIVATIVES” (MERZ PHARMA GMBH & KGAA, priority 2008, published 2011) are described below.

The nature of data set [1]: Isothermal titration calorimetry (ITC) of complexation with HPBCD. It counts as physicochemical. The protocol:
(§1) Complexes between neramexane mesylate and either hydroxypropyl-beta-cyclodextrin (HPBCD; grade: Kleptose™ HPB) or hydroxypropyl-gamma-cyclodextrin (HPGCD; grade: Cavasol™ W8 HP Pharma) are formed and investigated by isothermal titration calorimetry (ITC). The experiments are performed on a Microcal MCS-ITC instrument. The procedure consists of iteratively adding small portions of a test solution (here: a neramexane mesylate solution) through a motorised microlitre syringe to a receptor solution (here: a cyclodextrin solution) located in the calorimeter. Upon complexation, an exothermic or endothermic signal is produced which represents the sum of all thermal events including complexation itself, but also heats of dilution or (de)protonation. The titration curves are evaluated with the Microcal Origin software V2.9 with its original data evaluation module for titration calorimetric evaluations.
(§2) The experiments are carried out using aqueous phosphate buffer of pH 6 as a solvent. Solutions of neramexane mesylate, HPBCD, and HPGCD of various concentrations are prepared, and a number of titrations are conducted using different maximal molar ratios of neramexane to cyclodextrin (after complete addition of the drug substance), ranging from 1.25 to 5. Titrations with solvent solutions alone and in combination with cyclodextrin solution are performed to obtain curves indicating the heats of dilution, which may be used as baseline data for the correction of the complexation curves.

A short description of data set [2]: Isothermal titration calorimetry (ITC) of complexation with HPGCD. Type of data set: physicochemical. The procedure:
as §1, §2
(In general: In ITC the heat of successive injections is recorded.)

[3] abbreviates: final molar ratio 1.25, aqueous phosphate buffer pH 6.
The mark [4] stands for this setting: final molar ratio of neramexane to cyclodextrin 5, aqueous phosphate buffer pH 6.
Where [5] appears, read: final molar ratio 1.8, aqueous phosphate buffer pH 6.

Consider `CC1(C)CC(C)(C)CC(C)(N)C1` [neramexane, 1-amino-1,3,3,5,5-pentamethylcyclohexane], for which the “thermal nature of complexation” value in data set [1] (aqueous phosphate buffer pH 6) is reported as “exothermic”; in data set [2] (aqueous phosphate buffer pH 6), “endothermic”. The equilibrium constant in data set [1] (setting [3]) turned out to be 413 M⁻¹; in data set [1] (setting [4]) it was 788 M⁻¹; in data set [2] (setting [5]), 112 M⁻¹. Besides, the “stoichiometry of binding (of neramexane per cyclodextrin molecule)” value is on record as 0.4 in data set [1] (setting [3]) and 0.84 in data set [1] (setting [4]). Also, in data set [2] (setting [5]), the stoichiometry of binding is listed as 0.93.
